Laboratory results: ChEMBL document CHEMBL4118221, “Vinyldiaminotriazine-acridine conjugate as G-quadruplex alkylating agent” (Bioorg Med Chem, 2018)
Blank lines part the entries; values can stand above or below the molecule they belong to. Calls of active or inactive are those of the source. No cut-off for these calls is given here.

Experiments:
Quadruplex DNA [1] = test: Binding affinity to human telomeric G-quadruplex DNA in Na+ buffer at 0.2 uM after 15 mins by spectrofluorometric method; assay type: nucleic-acid assay
[2] = Binding affinity to T-T mismatched duplex DNA (unknown origin) in MES buffer at 0.2 uM after 15 mins by spectrofluorometric method
Quadruplex DNA [3] = test: Binding affinity to human telomeric G-quadruplex DNA in K+ buffer at 0.2 uM after 15 mins by spectrofluorometric method; assay type: nucleic-acid assay
Quadruplex DNA [4] = test: Alkylating activity at 5'-FAM-labeled human telomeric G-quadruplex DNA at 100 uM in Na+ buffer measured up to 72 hrs by PAGE analysis; assay type: functional
[5] = Alkylating activity at 5'-FAM-labeled T-T mismatched duplex DNA (unknown origin) in MES buffer at 100 uM measured up to 72 hrs by PAGE analysis; assay type: functional
[6] = Solubility of the compound in water; assay type: physicochemical; settings: buffer
dsDNA = test: Alkylating activity at 5'-FAM-labeled T-A full-matched duplex DNA (unknown origin) in MES buffer at 100 uM measured up to 72 hrs by PAGE analysis; assay type: functional
Quadruplex DNA [7] = test: Alkylating activity at 5'-FAM-labeled human telomeric G-quadruplex DNA in K+ buffer at 100 uM measured up to 72 hrs by PAGE analysis; assay type: functional
Quadruplex DNA [8] = test: Binding affinity to human telomeric G-quadruplex DNA in K+ buffer at 9.4 uM by UV-vis titration analysis; assay type: nucleic-acid assay
Quadruplex DNA [9] = test: Binding affinity to human telomeric G-quadruplex DNA in Na+ buffer at 9.4 uM UV-vis titration analysis; assay type: nucleic-acid assay
Quadruplex DNA [10] = test: Alkylating activity at T base of human telomeric G-quadruplex DNA in K+ buffer assessed as thymidine-compound adduct formation at 100 uM using 9-mer primer after 72 hrs by alkaline phosphatase and phosphodiesterase-1 enzymatic hydrolysis assay based ESI-MS analysis; assay type: functional
Quadruplex DNA [11] = test: Alkylating activity at 19T base of human telomeric G-quadruplex DNA in Na+ buffer at 100 uM using 9-mer primer after 72 hrs by primer extension method; assay type: functional
Quadruplex DNA [12] = test: Alkylating activity at T bases of human telomeric G-quadruplex DNA in K+ buffer at 100 uM using 11-mer primer after 72 hrs by primer extension method; assay type: functional
Quadruplex DNA [13] = test: Alkylating activity at human telomeric G-quadruplex DNA in K+ buffer assessed as thermal stabilization by measuring change in melting temperature at 1.5 uM by circular dichroism spectral analysis; assay type: functional
Quadruplex DNA [14] = test: Alkylating activity at 13T base of human telomeric G-quadruplex DNA in Na+ buffer at 100 uM using 9-mer primer after 72 hrs by primer extension method; assay type: functional
Quadruplex DNA [15] = test: Alkylating activity at 24T base of human telomeric G-quadruplex DNA in Na+ buffer at 100 uM using 9-mer primer after 72 hrs by primer extension method; assay type: functional
Quadruplex DNA [16] = test: Alkylating activity at 12T base of human telomeric G-quadruplex DNA in Na+ buffer at 100 uM using 9-mer primer after 72 hrs by primer extension method; assay type: functional
Quadruplex DNA [17] = test: Effect on conformation of human telomeric G-quadruplex DNA in K+ buffer by circular dichroism spectral analysis; assay type: nucleic-acid assay
Quadruplex DNA [18] = test: Alkylating activity at 12T base of human telomeric G-quadruplex DNA in K+ buffer at 100 uM using 9-mer primer after 72 hrs by primer extension method; assay type: functional
Quadruplex DNA [19] = test: Alkylating activity at 14G base of human telomeric G-quadruplex DNA in Na+ buffer at 100 uM using 9-mer primer after 72 hrs by primer extension method; assay type: functional
Quadruplex DNA [20] = test: Alkylating activity at 14G base of human telomeric G-quadruplex DNA in K+ buffer at 100 uM using 9-mer primer after 72 hrs by primer extension method; assay type: functional
Quadruplex DNA [21] = test: Alkylating activity at human telomeric G-quadruplex DNA in Na+ buffer assessed as thermal stabilization by measuring change in melting temperature at 1.5 uM by circular dichroism spectral analysis; assay type: functional
Quadruplex DNA [22] = test: Alkylating activity at 19T base of human telomeric G-quadruplex DNA in K+ buffer at 100 uM using 9-mer primer after 72 hrs by primer extension method; assay type: functional
Quadruplex DNA [23] = test: Alkylating activity at 13T base of human telomeric G-quadruplex DNA in K+ buffer at 100 uM using 9-mer primer after 72 hrs by primer extension method; assay type: functional
Quadruplex DNA [24] = test: Alkylating activity at 18T base of human telomeric G-quadruplex DNA in K+ buffer at 100 uM using 9-mer primer after 72 hrs by primer extension method; assay type: functional
Quadruplex DNA [25] = test: Effect on conformation of human telomeric G-quadruplex DNA in Na+ buffer by circular dichroism spectral analysis; assay type: nucleic-acid assay
Quadruplex DNA [26] = test: Alkylating activity at 25T base of human telomeric G-quadruplex DNA in Na+ buffer at 100 uM using 9-mer primer after 72 hrs by primer extension method; assay type: functional
Quadruplex DNA [27] = test: Alkylating activity at T bases of human telomeric G-quadruplex DNA in Na+ buffer at 100 uM using 11-mer primer after 72 hrs by primer extension method; assay type: functional
Quadruplex DNA [28] = test: Alkylating activity at 18T base of human telomeric G-quadruplex DNA in Na+ buffer at 100 uM using 9-mer primer after 72 hrs by primer extension method; assay type: functional
[29] = Binding affinity to T-T mismatched duplex DNA (unknown origin) by isothermal calorimetric titration method

Activity (Quadruplex DNA [1]): inactive
Kd (Quadruplex DNA [8]): 1940 nM
Kd [2]: 1290 nM
Kd (Quadruplex DNA [9]): 2210 nM
Kd (Quadruplex DNA [3]): 610 nM
SMILES: COc1ccc2nc3cc(Cl)ccc3c(NCCCCNc3nc(N)nc(CCSC)n3)c2c1

Kd [29]: 510 nM
SMILES: COc1ccc2nc3cc(Cl)ccc3c(NCCCCNc3nc(N)nc(N)n3)c2c1

The remaining lines, values behind:

SMILES: CSCCc1nc(N)nc(NCCCCNc2c3ccccc3nc3c(C(=O)NCCCN(C)C)cccc23)n1
Activity (Quadruplex DNA [1]): inactive
Kd [2]: 640 nM
Kd (Quadruplex DNA [3]): 440 nM

SMILES: C=Cc1nc(N)nc(NCCCCNc2c3ccccc3nc3c(C(=O)NCCCN(C)CCCNC(C)=O)cccc23)n1
Activity (Quadruplex DNA [4]): Active
Activity [5]: inactive
solubility [6]: Soluble
Activity (dsDNA): inactive
Activity (Quadruplex DNA [7]): Active

SMILES: C=Cc1nc(N)nc(NCCCCNc2c3ccccc3nc3c(C(=O)NCCCN(C)C)cccc23)n1
Activity (Quadruplex DNA [4]): Active
Activity [5]: inactive
solubility [6]: Soluble
Activity (dsDNA): inactive
Activity (Quadruplex DNA [7]): Active

SMILES: C=Cc1nc(N)nc(NCCCCNc2c3ccc(Cl)cc3nc3ccc(OC)cc23)n1
Activity (Quadruplex DNA [10]): Active
Activity (Quadruplex DNA [11]): Active
Activity (Quadruplex DNA [12]): Active
ΔTm (Quadruplex DNA [13]): 12.7 °C
Activity (Quadruplex DNA [14]): Active
Activity (Quadruplex DNA [4]): Active
Activity (Quadruplex DNA [15]): Active
Activity (Quadruplex DNA [16]): Active
Activity (Quadruplex DNA [17]): inactive
Activity (Quadruplex DNA [18]): Active
Activity (Quadruplex DNA [19]): Active
Activity [5]: Active
Activity (Quadruplex DNA [20]): Active
solubility [6]: Soluble
ΔTm (Quadruplex DNA [21]): 5.4 °C
Activity (Quadruplex DNA [22]): Active
Activity (Quadruplex DNA [23]): Active
Activity (Quadruplex DNA [24]): Active
Activity (Quadruplex DNA [25]): inactive
Activity (Quadruplex DNA [26]): Active
Activity (Quadruplex DNA [27]): Active
Activity (dsDNA): inactive
Activity (Quadruplex DNA [7]): Active
Activity (Quadruplex DNA [28]): Active
